Experiments:
Type in all cases: cell-based
[1] = biological target: T1, PAR2 (HT-29 cells) (Homo sapiens, UniProt P55085); assay: Ca FLIPR TETRA assay, ANTAGONIST mode, activator 8 μM SLIGKV; settings: HT-29 cells; activator 8 μM SLIGKV; Method A: maximal concentration of antagonist 0.1, 1 or 2 μM
T1 construct: host or cells: HT-29
T1 sequence (P55085 26-397): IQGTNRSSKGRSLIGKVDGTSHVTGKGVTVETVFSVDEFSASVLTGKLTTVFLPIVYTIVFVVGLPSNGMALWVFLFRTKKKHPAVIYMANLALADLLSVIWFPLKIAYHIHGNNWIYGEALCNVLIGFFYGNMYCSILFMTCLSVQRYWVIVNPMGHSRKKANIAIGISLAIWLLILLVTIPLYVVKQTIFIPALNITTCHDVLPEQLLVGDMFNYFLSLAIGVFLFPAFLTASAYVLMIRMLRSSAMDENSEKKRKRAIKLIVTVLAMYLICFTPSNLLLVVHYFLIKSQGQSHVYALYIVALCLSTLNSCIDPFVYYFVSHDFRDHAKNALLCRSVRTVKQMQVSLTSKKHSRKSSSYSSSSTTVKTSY
In short: (§1)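 Inhibition of agonist-evoked calcium signals was measured in human HT-29 colon cells cultured overnight in 1% FBS McCoy's medium. Test compounds preincubated 30 min at r.t.; activators at final concentrations as stated for each readout.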

[2] = biological target: T1, PAR2 (HT-29 cells); assay: Ca FLIPR TETRA assay, ANTAGONIST mode, activator 3.1 U/mL trypsin; settings: HT-29 cells; activator 3.1 U/mL trypsin; Method A: maximal concentration of antagonist 0.1, 1 or 2 μM
In short: as §1

[3] = test system: Thrombin-stimulated Ca2+ response in HT-29 cells; assay: Ca FLIPR TETRA assay, ANTAGONIST mode, activator 1 U/mL Thrombin; settings: HT-29 cells, activator 1 U/mL Thrombin
In short: as §1

[4] = test system: UTP-stimulated Ca2+ response in HT-29 cells; assay: Ca FLIPR TETRA assay, ANTAGONIST mode, activator 0.6 μM UTP; settings: HT-29 cells, activator 0.6 μM UTP
In short: as §1

SMILES | IC50 [1] [nM] | IC50 [2] [nM] | IC50 ([3]; Homo sapiens) [nM] | IC50 ([4]; Homo sapiens) [nM] | IC50 [3] [nM] | IC50 [4] [nM]
CC(C)(CC(=O)N1CCN(C(=O)c2cc3nc(-c4ccc(Cl)c(F)c4)cc(C(C)(C)C)c3o2)C(C)(C)C1)C(=O)O [Example I-417] | 0.2 | 0.4 | > 1630 | > 1630 |  | 
CC1(C)CCC(c2cc(C(C)(C)C)c3oc(C(=O)N4CCN(C(=O)CCC(=O)O)CC4(C)C)cc3n2)CC1 [Example I-418] | 2.1 | 5.6 | > 1250 | > 1250 |  | 
CC(C)(C)c1cc(-c2ccc(Cl)c(F)c2)nc2cc(C(=O)N3CCN(C(=O)CCC(=O)O)CC3(C)C)oc12 [Example I-419] | 1.1 | 3 | > 1250 | > 1250 |  | 
CC(C)(C)c1cc(-c2ccc(Cl)cc2)nc2cc(C(=O)N3CCN(C(=O)CCC(=O)O)CC3(C)C)oc12 [Example I-420] | 4.6 | 9.8 | > 1250 | > 1250 |  | 
CC(C)(C)c1cc(-c2ccc(F)cc2)nc2cc(C(=O)N3CCN(c4cnc(C(=O)O)cn4)CC3(C)C)oc12 [Example I-421] | 1.5 | 3.4 |  |  | 600 | 750
CC(C)(C)c1cc(-c2ccc(Cl)c(F)c2)nc2cc(C(=O)N3CCC(C(=O)[C@H]4CC[C@@](C)(C(=O)O)CC4)CC3(C)C)oc12 (stereo partly shown) [Example I-422] | 0.2 | 0.3 |  |  | 2000 | 1500
CC(C)(C)c1cc(-c2ccc(Cl)cc2)nc2cc(C(=O)N3CCN(C(=O)[C@H]4CC[C@@](C)(C(=O)O)CC4)CC3(C)C)oc12 [Example I-423] | 0.4 | 0.7 | > 2000 | > 2000 |  | 
CC(C)(C)c1cc(-c2ccc(Cl)c(F)c2)nc2cc(C(=O)N3CCC(c4nc(C(=O)O)cs4)CC3(C)C)oc12 (stereo not shown) [Example I-424] | 0.1 | 0.3 |  |  | 1800 | 1200
Cc1oc(C2CCN(C(=O)c3cc4nc(C5CCC(C)(C)CC5)cc(C(C)(C)C)c4o3)C(C)(C)C2)nc1C(=O)O (stereo not shown) [Example I-425] | 0.3 | 0.4 |  |  | > 2000 | > 2000
CC(C)(C)c1cc(-c2ccc(Cl)cc2)nc2cc(C(=O)N3CCC(c4nc(C(=O)O)cs4)CC3(C)C)oc12 (stereo not shown) [Example I-426] | 0.1 | 0.1 |  |  | 1800 | 1300
CC1(C)CCC(c2cc(C(C)(C)C)c3oc(C(=O)N4CCC(c5ncc(C(=O)O)cn5)CC4(C)C)cc3n2)CC1 (stereo not shown) [Example I-427] | 0.5 | 0.8 |  |  | 420 | 520
CC(C)(C)c1cc(-c2ccc(Cl)c(F)c2)nc2cc(C(=O)N3CCC(c4ncc(C(=O)O)cn4)CC3(C)C)oc12 (stereo not shown) [Example I-428] | 0.6 | 0.7 |  |  | 1600 | 1700
CC(C)(C)c1cc(-c2ccc(Cl)cc2)nc2cc(C(=O)N3CCC(c4ncc(C(=O)O)cn4)CC3(C)C)oc12 (stereo not shown) [Example I-429] | 0.4 | 0.5 |  |  | 400 | 440
Cc1oc(C2CCN(C(=O)c3cc4nc(-c5ccc(Cl)c(F)c5)cc(C(C)(C)C)c4o3)C(C)(C)C2)nc1C(=O)O (stereo not shown) [Example I-430] | 0.6 | 0.9 |  |  | > 2000 | > 2000
Cc1oc(C2CCN(C(=O)c3cc4nc(-c5ccc(Cl)cc5)cc(C(C)(C)C)c4o3)C(C)(C)C2)nc1C(=O)O (stereo not shown) [Example I-431] | 0.7 | 0.9 |  |  | > 2000 | > 2000
CC(C)(C)c1cc(-c2ccc(Cl)c(F)c2)nc2cc(C(=O)N3CCC(CC(=O)NC#N)CC3(C)C)oc12 (stereo not shown) [Example I-432] | 0.2 | 0.3 | 1100 | 970 |  | 
CC(C)(C)c1cc(-c2ccc(Cl)c(F)c2)nc2cc(C(=O)N3CCC(CC(=O)NS(=O)(=O)C(F)(F)F)CC3(C)C)oc12 (stereo not shown) [Example I-433] | 2.7 | 3.4 | > 2000 | > 2000 |  | 
CC(C)(C)c1cc(N2CCC[C@H]2C(F)(F)F)nc2cc(C(=O)N3CCN(C(=O)[C@H]4C[C@](C)(O)C4)CC3(C)C)oc12 [Example I-434] | 26 | 75 | > 2000 | > 2000 |  | 
CC(C)(C)c1cc(N2CCC3(CC2)CC3)nc2cc(C(=O)N3CCN(C(=O)[C@H]4C[C@@](C)(O)C4)CC3(C)C)oc12 [Example I-435] | 1.6 | 3.8 | > 2000 | > 2000 |  | 

SMILES | IC50 [1] [nM] | IC50 [2] [nM] | IC50 ([3]; Homo sapiens) [nM] | IC50 ([4]; Homo sapiens) [nM] | IC50 [3] [nM] | IC50 [4] [nM]
CC(C)(C)c1cc(N2CCC(C(F)(F)F)CC2)nc2cc(C(=O)N3CCN(C(=O)[C@H]4C[C@](C)(O)C4)CC3(C)C)oc12 [Example I-437] | 6.4 | 7.8 | > 2000 | > 2000 |  | 
CC(C)(C)c1cc(N2CCC(C#N)CC2)nc2cc(C(=O)N3CCN(C(=O)[C@H]4C[C@](C)(O)C4)CC3(C)C)oc12 [Example I-438] | 320 | 420 | > 2000 | > 2000 |  | 
CC1(O)CC(C(=O)N2CCN(C(=O)c3cc4nc(N5CCC(F)(F)C5)cc(C(C)(C)C)c4o3)C(C)(C)C2)C1 (stereo not shown) [Example I-439] | 78 | 96 | > 2000 | > 2000 |  | 
CC(C)(C)c1cc(N2CCC[C@@H]2C(F)(F)F)nc2cc(C(=O)N3CCN(C(=O)[C@H]4C[C@](C)(O)C4)CC3(C)C)oc12 [Example I-440] | 520 | 640 | > 2000 | > 2000 |  | 
CC(C)(C)c1cc(N2CC3(C2)CC(F)(F)C3)nc2cc(C(=O)N3CCN(C(=O)[C@H]4C[C@](C)(O)C4)CC3(C)C)oc12 [Example I-441] | 76 | 130 | > 2000 | > 2000 |  | 
CC(C)(C)c1cc(N2CCC(C(C)(C)O)CC2)nc2cc(C(=O)N3CCN(C(=O)[C@H]4C[C@](C)(O)C4)CC3(C)C)oc12 [Example I-442] | > 2000 | > 2000 | > 2000 | > 2000 |  | 
CC(C)(C)c1cc(C2CC3(CCC3)C2)nc2cc(C(=O)N3CCN(c4ccc(C(=O)O)cn4)CC3(C)C)oc12 [Example I-443] | 0.5 | 0.6 | > 2000 | 1600 |  | 
CC(C)(C)c1cc(C2CC3(CCC3)C2)nc2cc(C(=O)N3CCN(C(=O)[C@@H]4CNCCO4)CC3(C)C)oc12 [Example I-444] | 65 | 76 | > 2000 | > 2000 |  | 
CC(C)(C)c1cc(C2CC3(CCC3)C2)nc2cc(C(=O)N3CCN(C(=O)[C@H]4CNCCO4)CC3(C)C)oc12 [Example I-445] | 260 | 260 | > 2000 | > 2000 |  | 
CC(C)(C)c1cc(C2CC3(CCC3)C2)nc2cc(C(=O)N3CCN(C(=O)[C@H]4COCCN4)CC3(C)C)oc12 [Example I-446] | 106 | 130 | > 2000 | > 2000 |  | 
CC(C)(C)c1cc(C2CC3(CCC3)C2)nc2cc(C(=O)N3CCN(C(=O)[C@@H]4COCCN4)CC3(C)C)oc12 [Example I-447] | 460 | 590 | > 2000 | > 2000 |  | 
CC1(C)CCC(c2cc(C(C)(C)C)c3oc(C(=O)N4CCN(c5nc(C(=O)O)co5)CC4(C)C)cc3n2)CC1 [Example I-450] | 0.4 | 0.8 | > 1010 | > 1010 |  | 
CC1(C)CCC(c2cc(C(C)(C)C)c3oc(C(=O)N4CCN(c5cnc(C(=O)O)cn5)CC4(C)C)cc3n2)CC1 [Example I-451] | 6.7 | 5.9 | > 2000 | > 2000 |  | 
CC(C)(C)c1cc(-c2ccc(Cl)cc2)nc2cc(C(=O)N3CCN(c4cnc(C(=O)O)cn4)CC3(C)C)oc12 [Example I-452] | 8.9 | 6.6 | > 2000 | > 2000 |  | 
CC(C)(C)c1cc(-c2ccc(F)cc2)nc2cc(C(=O)N3CCN(N4CCC(=O)NCC4(C)C)CC3(C)C)oc12 [Example I-453] | 450 | 660 | > 2000 | > 2000 |  | 
CC(C)(C)c1cc(-c2ccc(F)cc2)nc2cc(C(=O)N3CCN(N4CCNC(=O)CC4(C)C)CC3(C)C)oc12 [Example I-454] | 41 | 67 | > 2000 | > 2000 |  | 
CC1(C)CCC(c2cc(C(C)(C)C)c3oc(C(=O)N4CCN(c5nccc(C(=O)O)n5)CC4(C)C)cc3n2)CC1 [Example I-455] | 1.2 | 2.4 | 450 | 415 |  | 
CC(C)(C)c1cc(-c2ccc(Cl)c(F)c2)nc2cc(C(=O)N3CCN(c4cnc(C(=O)O)cn4)CC3(C)C)oc12 [Example I-456] | 3.2 | 4.2 | > 2000 | > 2000 |  | 

— patent US20180057505A1, “BICYCLIC HETEROARYL COMPOUNDS USEFUL AS INHIBITORS OF THE PAR-2 SIGNALING PATHWAY” (VERTEX PHARMACEUTICALS INCORPORATED, priority 2015, published 2018)
